{
  "source": "patent US20150174081A1",
  "about": "“LIQUID PHARMACEUTICAL COMPOSITION COMPRISING NITISINONE” (Swedish Orphan Biovitrum International AB, priority 2011, published 2015)",
  "key": {"[1]": {"experiment": "Particle size diameter (PSD) of nitisinone before and after air-jet micronization", "format": "physicochemical", "description": "A lab-scale air-jet mill, 2 inches qualification model, Sturtevant Inc., was used to micronize nitisinone obtained from the company Bachem, Switzerland. The mill was operated with tangential flow (i.e. the air and drug are fed in the same direction in the milling chamber). The unmilled drug was fed into the mill using a Venturi feed system, Syncron®, Magnet Feeder model F-TO-C, where air was used to draw the feed material into the milling chamber. A product filter bag was affixed to the outlet of the mill, through which the exhausts and the milled drug collects. The milling conditions were set as follows: • Grind air: Dry nitrogen gas • Grind pressure: 90 psi • Feed pressure: 85 psi • Room conditions: Ambient 5 g of the API was passed through the lab-scale micronizer and the resulting material was collected (3.7 g). The material was analyzed for/by particle size diameter (PSD), assay and purity by high performance liquid chromatography (HPLC), x-ray powder diffraction (XRPD), differential scanning calorimetry (DSC) and polarized light microscopy (PLM)."}, "[2]": {"experiment": "Stability of oxotetrahydroxanthenone solutions, LC-MS", "format": "physicochemical", "method": "The stability study of the main degradation product in Example 6, oxotetrahydroxanthenone, is performed under similar conditions as described in Example 6. Samples of oxotetrahydroxanthenone (OTHX), 81 μg/ml in either citrate buffer pH 3.0 or phosphate buffer pH 6.8, were put on stability at +5° C., +25° C. and +37° C., respectively, for 6 months. The concentrations of OTHX and the secondary degradation products 1,3-cyclohexanedione (CHD) and 4-(trifluoromethyl)salicylic acid (TSA) were analyzed by LC-MS. The results, shown in Table XI, below, are expressed as percent of the initial concentration of OTHX. The mass balance expressed as the total recovery of CHD+OTHX+TSA compared to the initial concentration of OTHX were calculated from MmOTHX/(Mm CHD+MmTSA)×(CHDconc+TSAconc)+OTHXconc expressed in μg/ml where MmOTHX, MmCHD and MmTSA are the molecular masses corresponding to 282, 202 and 206 g/mol, respectively."}, "[3]": {"conditions": "Citrate buffer pH 3.0, 5° C., 1.8 months"}, "[4]": {"conditions": "Citrate buffer pH 3.0, 5° C., 3 months"}, "[5]": {"conditions": "Citrate buffer pH 3.0, 5° C., 6 months"}, "[6]": {"conditions": "Citrate buffer pH 3.0, 25° C., 1.8 months"}, "[7]": {"conditions": "Citrate buffer pH 3.0, 25° C., 3 months"}, "[8]": {"conditions": "Citrate buffer pH 3.0, 25° C., 6 months"}, "[9]": {"conditions": "Citrate buffer pH 3.0, 37° C., 1.8 months"}, "[10]": {"conditions": "Citrate buffer pH 3.0, 37° C., 3 months"}, "[11]": {"conditions": "Citrate buffer pH 3.0, 37° C., 6 months"}, "[12]": {"conditions": "Phosphate buffer pH 6.8, 5° C., 1.8 months"}, "[13]": {"conditions": "Phosphate buffer pH 6.8, 5° C., 3 months"}, "[14]": {"conditions": "Phosphate buffer pH 6.8, 5° C., 6 months"}, "[15]": {"conditions": "Phosphate buffer pH 6.8, 25° C., 1.8 months"}, "[16]": {"conditions": "Phosphate buffer pH 6.8, 25° C., 3 months"}, "[17]": {"conditions": "Phosphate buffer pH 6.8, 25° C., 6 months"}, "[18]": {"conditions": "Phosphate buffer pH 6.8, 37° C., 1.8 months"}, "[19]": {"conditions": "Phosphate buffer pH 6.8, 37° C., 3 months"}, "[20]": {"conditions": "Phosphate buffer pH 6.8, 37° C., 6 months"}},
  "data": [
    {"smiles": "O=C1CCCC(=O)C1C(=O)c1ccc(C(F)(F)F)cc1[N+](=O)[O-]", "note": "[Start material, 2-(2-nitro-4-trifluoromethylbenzoyl)-1,3-cyclohexanedione]", "values": [
      {"measurement": "Particle size diameter d10", "setting": "[1]", "result": 20.50, "unit": "microns"},
      {"measurement": "Particle size diameter d20", "setting": "[1]", "result": 33.10, "unit": "microns"},
      {"measurement": "Particle size diameter d50", "setting": "[1]", "result": 60.01, "unit": "microns"},
      {"measurement": "Particle size diameter d80", "setting": "[1]", "result": 94.42, "unit": "microns"},
      {"measurement": "Particle size diameter d90", "setting": "[1]", "result": 115.11, "unit": "microns"}
    ]},
    {"smiles": "O=C1CCCc2oc3cc(C(F)(F)F)ccc3c(=O)c21", "note": "[OTHX, 6-(trifluoromethyl)-3,4-dihydro-1H-xanthenene-1,9(2H)-dione]", "values": [
      {"measurement": "Concentration of OTHX", "setting": "[2]; [3]", "result": "96.7% of the initial concentration of OTHX"},
      {"measurement": "Concentration of secondary degradation product CHD", "setting": "[2]; [3]", "result": "0.0% of the initial concentration of OTHX"},
      {"measurement": "Concentration of secondary degradation product TSA", "setting": "[2]; [3]", "result": "0.0% of the initial concentration of OTHX"},
      {"measurement": "Concentration of OTHX", "setting": "[2]; [4]", "result": "96.9% of the initial concentration of OTHX"},
      {"measurement": "Concentration of secondary degradation product CHD", "setting": "[2]; [4]", "result": "0.0% of the initial concentration of OTHX"},
      {"measurement": "Concentration of secondary degradation product TSA", "setting": "[2]; [4]", "result": "0.0% of the initial concentration of OTHX"},
      {"measurement": "Concentration of OTHX", "setting": "[2]; [5]", "result": "91.6% of the initial concentration of OTHX"},
      {"measurement": "Concentration of secondary degradation product CHD", "setting": "[2]; [5]", "result": "0.0% of the initial concentration of OTHX"},
      {"measurement": "Concentration of secondary degradation product TSA", "setting": "[2]; [5]", "result": "0.0% of the initial concentration of OTHX"},
      {"measurement": "Concentration of OTHX", "setting": "[2]; [6]", "result": "96.7% of the initial concentration of OTHX"},
      {"measurement": "Concentration of secondary degradation product CHD", "setting": "[2]; [6]", "result": "0.0% of the initial concentration of OTHX"},
      {"measurement": "Concentration of secondary degradation product TSA", "setting": "[2]; [6]", "result": "0.0% of the initial concentration of OTHX"},
      {"measurement": "Concentration of OTHX", "setting": "[2]; [7]", "result": "102.7% of the initial concentration of OTHX"},
      {"measurement": "Concentration of secondary degradation product CHD", "setting": "[2]; [7]", "result": "0.0% of the initial concentration of OTHX"},
      {"measurement": "Concentration of secondary degradation product TSA", "setting": "[2]; [7]", "result": "0.0% of the initial concentration of OTHX"},
      {"measurement": "Concentration of OTHX", "setting": "[2]; [8]", "result": "92.3% of the initial concentration of OTHX"},
      {"measurement": "Concentration of secondary degradation product CHD", "setting": "[2]; [8]", "result": "0.0% of the initial concentration of OTHX"},
      {"measurement": "Concentration of secondary degradation product TSA", "setting": "[2]; [8]", "result": "0.0% of the initial concentration of OTHX"},
      {"measurement": "Concentration of OTHX", "setting": "[2]; [9]", "result": "97.9% of the initial concentration of OTHX"},
      {"measurement": "Concentration of secondary degradation product CHD", "setting": "[2]; [9]", "result": "0.0% of the initial concentration of OTHX"},
      {"measurement": "Concentration of secondary degradation product TSA", "setting": "[2]; [9]", "result": "0.2% of the initial concentration of OTHX"},
      {"measurement": "Concentration of OTHX", "setting": "[2]; [10]", "result": "97.7% of the initial concentration of OTHX"},
      {"measurement": "Concentration of secondary degradation product CHD", "setting": "[2]; [10]", "result": "0.0% of the initial concentration of OTHX"},
      {"measurement": "Concentration of secondary degradation product TSA", "setting": "[2]; [10]", "result": "0.0% of the initial concentration of OTHX"},
      {"measurement": "Concentration of OTHX", "setting": "[2]; [11]", "result": "95.3% of the initial concentration of OTHX"},
      {"measurement": "Concentration of secondary degradation product CHD", "setting": "[2]; [11]", "result": "0.0% of the initial concentration of OTHX"},
      {"measurement": "Concentration of secondary degradation product TSA", "setting": "[2]; [11]", "result": "0.0% of the initial concentration of OTHX"},
      {"measurement": "Concentration of OTHX", "setting": "[2]; [12]", "result": "96.7% of the initial concentration of OTHX"},
      {"measurement": "Concentration of secondary degradation product CHD", "setting": "[2]; [12]", "result": "0.0% of the initial concentration of OTHX"},
      {"measurement": "Concentration of secondary degradation product TSA", "setting": "[2]; [12]", "result": "1.4% of the initial concentration of OTHX"},
      {"measurement": "Concentration of OTHX", "setting": "[2]; [13]", "result": "91.0% of the initial concentration of OTHX"},
      {"measurement": "Concentration of secondary degradation product CHD", "setting": "[2]; [13]", "result": "0.7% of the initial concentration of OTHX"},
      {"measurement": "Concentration of secondary degradation product TSA", "setting": "[2]; [13]", "result": "1.9% of the initial concentration of OTHX"},
      {"measurement": "Concentration of OTHX", "setting": "[2]; [14]", "result": "83.1% of the initial concentration of OTHX"},
      {"measurement": "Concentration of secondary degradation product CHD", "setting": "[2]; [14]", "result": "0.0% of the initial concentration of OTHX"},
      {"measurement": "Concentration of secondary degradation product TSA", "setting": "[2]; [14]", "result": "0.0% of the initial concentration of OTHX"},
      {"measurement": "Concentration of OTHX", "setting": "[2]; [15]", "result": "74.8% of the initial concentration of OTHX"},
      {"measurement": "Concentration of secondary degradation product CHD", "setting": "[2]; [15]", "result": "7.7% of the initial concentration of OTHX"},
      {"measurement": "Concentration of secondary degradation product TSA", "setting": "[2]; [15]", "result": "13.0% of the initial concentration of OTHX"},
      {"measurement": "Concentration of OTHX", "setting": "[2]; [16]", "result": "63.2% of the initial concentration of OTHX"},
      {"measurement": "Concentration of secondary degradation product CHD", "setting": "[2]; [16]", "result": "9.7% of the initial concentration of OTHX"},
      {"measurement": "Concentration of secondary degradation product TSA", "setting": "[2]; [16]", "result": "20.2% of the initial concentration of OTHX"},
      {"measurement": "Concentration of OTHX", "setting": "[2]; [17]", "result": "44.8% of the initial concentration of OTHX"},
      {"measurement": "Concentration of secondary degradation product CHD", "setting": "[2]; [17]", "result": "25.2% of the initial concentration of OTHX"},
      {"measurement": "Concentration of secondary degradation product TSA", "setting": "[2]; [17]", "result": "36.4% of the initial concentration of OTHX"},
      {"measurement": "Concentration of OTHX", "setting": "[2]; [18]", "result": "33.5% of the initial concentration of OTHX"},
      {"measurement": "Concentration of secondary degradation product CHD", "setting": "[2]; [18]", "result": "22.2% of the initial concentration of OTHX"},
      {"measurement": "Concentration of secondary degradation product TSA", "setting": "[2]; [18]", "result": "38.6% of the initial concentration of OTHX"},
      {"measurement": "Concentration of OTHX", "setting": "[2]; [19]", "result": "13.7% of the initial concentration of OTHX"},
      {"measurement": "Concentration of secondary degradation product CHD", "setting": "[2]; [19]", "result": "21.5% of the initial concentration of OTHX"},
      {"measurement": "Concentration of secondary degradation product TSA", "setting": "[2]; [19]", "result": "49.1% of the initial concentration of OTHX"},
      {"measurement": "Concentration of OTHX", "setting": "[2]; [20]", "result": "0.4% of the initial concentration of OTHX"},
      {"measurement": "Concentration of secondary degradation product CHD", "setting": "[2]; [20]", "result": "32.8% of the initial concentration of OTHX"},
      {"measurement": "Concentration of secondary degradation product TSA", "setting": "[2]; [20]", "result": "66.4% of the initial concentration of OTHX"}
    ]},
    {"smiles": "O=C1CCCC(=O)C1C(=O)c1ccc(C(F)(F)F)cc1[N+](=O)[O-]", "note": "[Micronized material, 2-(2-nitro-4-trifluoromethylbenzoyl)-1,3-cyclohexanedione]", "values": [
      {"measurement": "Particle size diameter d10", "setting": "[1]", "result": 0.30, "unit": "microns"},
      {"measurement": "Particle size diameter d20", "setting": "[1]", "result": 0.47, "unit": "microns"},
      {"measurement": "Particle size diameter d50", "setting": "[1]", "result": 1.29, "unit": "microns"},
      {"measurement": "Particle size diameter d80", "setting": "[1]", "result": 2.59, "unit": "microns"},
      {"measurement": "Particle size diameter d90", "setting": "[1]", "result": 3.59, "unit": "microns"}
    ]}
  ]
}
